Measured values published in patent publication US20250026788A1, “PEPTIDES FOR THE TREATMENT OF CHRONICALLY ACTIVE AUTOIMMUNE INFLAMMATION” (advanceCOR GmbH, priority 2021, published 2025).
Ends that are not written are not given here.

How the values were obtained:
[1] = system: anti-bCII or anti-hFib antibody titers; assay: Measurement of mouse antibodies by ELISA in sera of treated FIA-CIA mice; assay type: in vivo; details: sera taken on days 35 and 84, 1 mg/kg i.v. on days 14, 35 and 56
Procedure: Serum was collected on days 0, 14, 35 and 56 of the experiment via bleeding of the tail vein. Treatment with peptides 90091, 90578 (at a concentration of 1 mg/kg body weight) or 0.9% NaCl was applied intravenously on day 14, 35 and 56. Mice were randomly distributed to the three treatment groups. Treatment compounds were numbered 1, 2 and 3. To minimize confounders, each of the three mice per cage received a different treatment. All clinical and histological investigators were blinded to the treatment until data analysis was finished. For comparability between the therapy groups, all mice, including the CFA control mice, received a daily dose of 1 mg/kg Metacam® (meloxicam) from day 14 after the first immunization on until the end of the experiment. Mice were killed on day 84 of the experiments via intracardiac punction and blood withdrawal under ketamine/xylazine anaesthesia.
ELISA plates were coated with 100 μl per well of either 1 μg/ml bCII (Chondrex, Inc.) or 1 μg/ml hFib (Millipore/Calbiochem) or 1 μg/ml citrullinated hFib (Cayman) or CCP peptide at a concentration of 10 μg/ml in coating solution for 1 h. The CCP peptide we used for the selected CCP assay had the following sequence: HQCHQEST(cit)GRSRGRCGRSGS (SEQ ID NO: 2), with disulphide bonds spanning C3-C16.
All subsequent procedures were performed at room temperature (RT) and incubations were done on a microtiter plate shaker. […] After washing, the POD was detected by incubation with 100 μl/well of TMB substrate (Thermo Scientific, #34029) until a maximal optical density (OD) of about 1 to 2 was reached. Finally, the colorimetric reaction was stopped with 100 μl/well stopping solution (1M H2SO4) and the OD determined at a wavelength of 450 nm with a reference wavelength of 595 nm with the Tecan Infinite F 200 plate reader.
For assessment of antibodies, various antigens were coated on ELISA plates, and the sera of the mice were added. Binding of antibodies to the antigens was then measured by adding anti-mouse antibodies labelled with POD.

[2] = system: FIA-CIA (bCII- and hFib-immunized mice which develop RA-like arthritis); details: for overview of the paws: soft tissue enhancement and lymphocyte infiltration (HE sections): right hind paws; for arthritis score: score 0-16 per mouse
[3] = 1 mg/kg i.v. on days 14, 35 and 56
[4] = 1 mg/kg i.v. on days 14, 35 and 56, vs NaCl

| Molecule | antibody levels (anti-bCII, anti-hFib titers) ([1]; 1 mg/kg) | antibody levels (anti-bCII, anti-hFib titers) ([1]; listed as Peptide 905778, 1 mg/kg) | ankle and tarsal joint histology (lymphocyte infiltrates, cartilage, pannus) [2, 3] | paw swelling of tarsal joints ([2]; 1 mg/kg i.v. on days 14, 35 and 56, caliper, vs NaCl) | average histology score ([2]; 1 mg/kg i.v. on days 14, 35 and 56, right hind paw HE sections at day 84, score max 15, N=8) | overview of the paws: soft tissue enhancement and lymphocyte infiltration (HE sections) [2, 3] | arthritis score [2, 4] | antibody levels (anti-bCII, anti-hFib titers) [1] | survival probability (Kaplan-Meier, log-rank) ([2]; 1 mg/kg i.v. on days 14, 35 and 56, mice killed when arthritis too severe) | adverse effects ([2]; mouse, in vivo, 1 mg/kg) |
| --- | --- | --- | --- | --- | --- | --- | --- | --- | --- | --- |
| peptide 90578: GEPGIAGFKGEQGPK (SEQ ID NO: 1, bCII 256-270) with a D-fructosyl residue on the lysine at position 264 (position 9) (GEPGIAGFK(D‑fructosyl)GEQGPK; listed as Bos taurus) | this effect could not be found in the antibody levels | not Affected by Treatment | the cartilage was intact and there were only a few lymphocyte infiltrates in the subchondral bone | significantly lower swelling on days 49 and 56 | 3.9 | less tissue enhancement and lymphocyte infiltration | tended to be less severe | – | – | – |
| peptide 90091: non-fructosylated derivative of peptide 90578, amino sequence GEPGIAGFKGEQGPK (SEQ ID No: 1) (CARBOHYD (9)..(9); listed as Bos taurus) [reference compound] | – | – | less lymphocyte infiltrates, but also pannus formation and cartilage erosion | – | – | severely enhanced | seemed to enhance arthritis, but not significantly | not Affected by Treatment | did not reveal a significant difference between groups | – |
| Cc1cnc(NC(=O)C2=C(O)c3ccccc3S(=O)(=O)N2C)s1 [meloxicam, reference compound] | – | – | – | – | – | – | – | – | – | did not develop any adverse effects |
